Test results reported in US20260125357A1, “LACTATE ENHANCING COMPOUNDS AND USES THEREOF” (GLIAPHARM SA, priority 2022, published 2026).

These compounds were tested on primary astrocytes (assay: Extracellular medium acidification (SNARF5) assay in astrocytes). Settings: Mus musculus, Astrocyte; astrocytes in vitro; compounds 10 nM to 30 μM; read-out: Activity (EC50 class, extracellular medium acidification SNARF5).
Type: cell-based
Experimental: To assess for the effect of the compounds of the invention, those were tested in primary mouse astrocytes and astrocytes differentiated from human-derived induced pluripotent stem cells (iPSCs). Secretion of lactate was measured indirectly through the acidification of extracellular medium using extracellular pH sensor SNARE-5F-(AND-6)-CAR (SNARF5) as described below.
(§1) Primary cultures of cerebrocortical astrocytes were obtained from 1 to 2-day-old OF1 mouse pups (Charles River Laboratories). Briefly, cortices were isolated and minced in small pieces under a dissecting microscope. The cells were incubated for 30 min at 37° C. in a solution containing 20 U/ml papain, 1 mM L-cysteine and 10 kU/ml DNase I. After dissociation, papain activity was stopped by the addition of fetal calf serum (FCS). Single-cell suspension was then obtained by mechanical dissociation, which consisted in cells trituration in a DMEM D7777 medium supplemented with 44 mm NaHCO3, 10 ml/L antibiotic/antimycotic solution and 10% FCS. The cells were seeded at an average density of ˜10′000 cells/cm^2 on poly-D-lysine coated 96- or 12-well culture plates, depending on their use, and grown in DMEM D7777 medium supplemented with 44 mm NaHCO3, 10 ml/L antibiotic/antimycotic solution and 10% FCS at 37° C. in a humidified atmosphere containing 5% CO2/95% air. Culture medium was renewed twice a week. Cells were stimulated and harvested between DIV14 and DIV17, when confluence and cell growth were optimal.
Secretion of lactate was measured indirectly through the acidification of extracellular medium using extracellular pH sensor SNARF-5F-(AND-6)-CAR (SNARF5). After washing cells twice with stimulation medium (DMEM (D5030, Sigma), 1 mM […], and 5 mM Glucose, pH 7.4) at 37° C., cells were stimulated with compounds at a final concentration ranging from 10 nM to 30 μM in 50 μl per well of stimulation medium supplemented with 10 μM of SNARF5 (Life Technologies Corporation). Each compound was tested in two different plates for duplicates. After 30, 60 and 90 min stimulation, fluorescence was read at exc. (excitation) 480 nm/emm. (emission) 580 nm and at exc 480 nm/emm. 630 nm. The ratio of fluorescence between 630 nm and 580 emission values, which is proportional to extracellular pH, was calculated. In each plate, 8 wells were used for negative controls (DMSO 0.1%) and 8 wells were used for positive controls (CCCP 2 μM in DMSO). Results are shown as % of positive control effect (0% and 100% being activities of the Veh and positive control, respectively).
Compound `CC(=O)Nc1ccc2ccnc(Nc3ccc(S(C)(=O)=O)cc3)c2c1` [Compound 14, N-[1-(4-methylsulfonylanilino)-7-isoquinolyl]acetamide] has an EC50 of less than 1000 nM. Compound `CCOc1cc2ccnc(Nc3ccc(S(C)(=O)=O)cc3)c2cc1OCC` [Compound 8, 6,7-diethoxy-N-(4-methylsulfonylphenyl)isoquinolin-1-amine] has an EC50 of less than 1000 nM. Work on `C=COc1ccc2c(Nc3ccc(S(C)(=O)=O)cc3)nccc2c1` [Compound 10, N-(4-methylsulfonylphenyl)-6-vinyloxy-isoquinolin-1-amine] yielded an EC50 of less than 1000 nM. In the case of `CS(=O)(=O)c1ccc(Nc2nccc3cc(O)c(O)cc23)cc1` [Compound 5, 1-(4-methylsulfonylanilino)isoquinoline-6,7-diol], the EC50 is reported as less than 1000 nM. With `CCc1cc2c(Nc3ccc(S(C)(=O)=O)cc3)nccc2cc1OC` [Compound 17, 7-ethyl-6-methoxy-N-(4-methylsulfonylphenyl)isoquinolin-1-amine] the EC50 was less than 1000 nM. `COc1cc2ccnc(Nc3ccc(N4CCCC4=O)cc3)c2cc1OC` [Compound 9, 1-[4-[(6,7-dimethoxy-1-isoquinolyl)amino]phenyl]pyrrolidin-2-one] gave an EC50 of less than 1000 nM. `COc1cc2c(Nc3ccc(S(C)(=O)=O)cc3)nccc2cc1NCC1CC1` [Compound 23, N6-(cyclopropylmethyl)-7-methoxy-N1-(4-methylsulfonylphenyl)isoquinoline-1,6-diamine] showed an EC50 of less than 1000 nM. Compound `CCNc1ccc2ccnc(Nc3ccc(S(C)(=O)=O)cc3)c2c1` [Compound 15, N7-ethyl-N1-(4-methylsulfonylphenyl)isoquinoline-1,7-diamine] has an EC50 greater than 1000 nM. `CCOc1cc2ccnc(Nc3ccc(S(C)(=O)=O)cc3)c2cc1O` [Compound 6, 6-ethoxy-1-(4-methylsulfonylanilino)isoquinolin-7-ol] gave an EC50 greater than 1000 nM. `CCOc1cc2c(Nc3ccc(S(C)(=O)=O)cc3)nccc2cc1O` [Compound 7, 7-ethoxy-1-(4-methylsulfonylanilino)isoquinolin-6-ol] was tested, and the EC50 was greater than 1000 nM. Work on `CCCc1cc2c(Nc3ccc(S(C)(=O)=O)cc3)nccc2cc1OCC` [Compound 37, 6-ethoxy-N-(4-methanesulfonylphenyl)-7-propylisoquinolin-1-amine] yielded an EC50 of less than 1000 nM. Compound `CCc1cc2ccnc(Nc3ccc(S(C)(=O)=O)cc3)c2cc1O` [Compound 25, 6-ethyl-1-[(4-methanesulfonylphenyl)amino]isoquinolin-7-ol] has an EC50 of less than 1000 nM. `CCc1cc2c(Nc3ccc(S(C)(=O)=O)cc3)nccc2cc1O` [Compound 18, 7-ethyl-1-(4-methylsulfonylanilino)isoquinolin-6-ol] gave an EC50 of less than 1000 nM. With `COc1cc2ccnc(Nc3ccc(S(C)(=O)=O)cc3)c2cc1NCc1ccccc1` [Compound 20, N7-benzyl-6-methoxy-N1-(4-methylsulfonylphenyl)isoquinoline-1,7-diamine] the EC50 was less than 1000 nM. `CCCNc1cc2c(Nc3ccc(S(C)(=O)=O)cc3)nccc2cc1OC` [Compound 22, 6-methoxy-N1-(4-methylsulfonylphenyl)-N7-propyl-isoquinoline-1,7-diamine] was tested, and the EC50 was less than 1000 nM. `CS(=O)(=O)c1ccc(Nc2nccc3cc(OCCF)c(OCCF)cc23)cc1` [Compound 34, 6,7-bis(2-fluoroethoxy)-N-(4-methanesulfonylphenyl)isoquinolin-1-amine] gave an EC50 of less than 1000 nM. `CCOc1cc2ccnc(Nc3ccc(S(C)(=O)=O)cc3F)c2cc1OCC` [Compound 31, 6,7-diethoxy-N-(2-fluoro-4-methanesulfonylphenyl)isoquinolin-1-amine] gave an EC50 of less than 1000 nM. `CCOc1cc2ccnc(Nc3ccc(S(=O)(=O)C4CC4)cc3)c2cc1OCC` [Compound 32, N-[4-(cyclopropanesulfonyl)phenyl]-6,7-diethoxyisoquinolin-1-amine] gave an EC50 of less than 1000 nM. For `CCOc1cc2ccnc(Nc3ccc(-c4ccno4)cc3)c2cc1OCC` [Compound 29, 6,7-diethoxy-N-[4-(1,2-oxazol-5-yl)phenyl]isoquinolin-1-amine], the EC50 was less than 1000 nM. `CCOc1cc2ccnc(Nc3ccc(S(=O)(=O)CC)cc3)c2cc1OCC` [Compound 26, N-[4-(ethanesulfonyl)phenyl]-6,7-diethoxyisoquinolin-1-amine] was tested, and the EC50 was less than 1000 nM. For `COc1cc2c(Nc3ccc(S(C)(=O)=O)cc3)nccc2cc1N1CCC1` [Compound 24, 6-(azetidin-1-yl)-7-methoxy-N-(4-methylsulfonylphenyl)isoquinolin-1-amine], the EC50 was less than 1000 nM. For `CS(=O)(=O)c1ccc(Nc2nccc3cc(O)c(Br)cc23)cc1` [Compound 19, 7-bromo-1-(4-methylsulfonylanilino)isoquinolin-6-ol], the EC50 was less than 1000 nM. In the case of `CS(=O)(=O)c1ccc(Nc2nccc3ccc(O)cc23)cc1` [Compound 13, 1-(4-methylsulfonylanilino)isoquinolin-7-ol], the EC50 is reported as greater than 1000 nM. Compound `COc1cc2ccnc(Nc3ccc(S(C)(=O)=O)cc3)c2cc1NCC1CC1` [Compound 21, N7-(cyclopropylmethyl)-6-methoxy-N1-(4-methylsulfonylphenyl)isoquinoline-1,7-diamine] has an EC50 of less than 1000 nM. `CS(=O)(=O)c1ccc(Nc2nccc3cc(OCc4ccc(F)cc4)ccc23)cc1` [Compound 36, 6-[(4-fluorophenyl)methoxy]-N-(4-methanesulfonylphenyl)isoquinolin-1-amine] showed an EC50 of less than 1000 nM. `CCOc1cc2ccnc(Nc3ccc(-c4ccon4)cc3)c2cc1OCC` [Compound 28, 6,7-diethoxy-N-[4-(1,2-oxazol-3-yl)phenyl]isoquinolin-1-amine] gave an EC50 of less than 1000 nM. `CCOc1cc2ccnc(Nc3ccc(S(C)(=O)=O)cc3)c2cc1OCCF` [Compound 33, 6-ethoxy-7-(2-fluoroethoxy)-N-(4-methanesulfonylphenyl)isoquinolin-1-amine] was tested, and the EC50 was less than 1000 nM. `CS(=O)(=O)c1ccc(Nc2nccc3cc(-c4ncccn4)ccc23)cc1` [Compound 12, N-(4-methylsulfonylphenyl)-6-pyrimidin-2-yl-isoquinolin-1-amine] gave an EC50 of less than 1000 nM. Compound `CCOc1cc2ccnc(Nc3ccc(C4COC4)cc3)c2cc1OCC` [Compound 27, 6,7-diethoxy-N-[4-(oxetan-3-yl)phenyl]isoquinolin-1-amine] has an EC50 of less than 1000 nM. Work on `CC(C)Oc1ccc2c(Cc3ccc(S(C)(=O)=O)cc3)nccc2c1` [Compound 35, 1-[(4-methanesulfonylphenyl)methyl]-6-(propan-2-yloxy)isoquinoline] yielded an EC50 of less than 1000 nM. Work on `CC(C)Oc1ccc2c(Nc3ccc(S(C)(=O)=O)cc3)nccc2c1` [Compound 11, 6-isopropoxy-N-(4-methylsulfonylphenyl)isoquinolin-1-amine] yielded an EC50 of less than 1000 nM. `CCOc1cc2ccnc(Nc3ccc(S(C)(=O)=O)c(F)c3)c2cc1OCC` [Compound 30, 6,7-diethoxy-N-(3-fluoro-4-methanesulfonylphenyl)isoquinolin-1-amine] gave an EC50 of less than 1000 nM. Compound `C=Cc1cc2c(Nc3ccc(S(C)(=O)=O)cc3)nccc2cc1OC` [Compound 16, 6-methoxy-N-(4-methylsulfonylphenyl)-7-vinyl-isoquinolin-1-amine] has an EC50 of less than 1000 nM.

These compounds were tested on primary astrocytes (assay: MTT mitochondrial activity assay in primary astrocytes). Settings: different concentrations, after 1.5 h or 24 h.
Type: cell-based, mouse
Experimental: as §1
To monitor mitochondrial activity in astrocytes, which is linked to the metabolic process of glycolysis and production of lactate, astrocytes in 96-well plates were stimulated for 24 h (37° C. 5% CO2/95% air) with the compounds of the invention ranging from 10 nM to 10 μM.
After stimulation, 5 mg/ml thiazol blue tetrazolium bromide (MTT) in D5030 medium complemented with 5 mM D-glucose and 44 mM sodium bicarbonate (pH 7.2) was added to each well, and cells were incubated for 4 h at 37° C. (5% CO2). The medium was then removed and the amount of reduced MTT, i.e formazan, solubilized in DMSO (50 μl/well) was determined using a spectrophotometer (absorbance of 570 nm).
The mitochondrial activity was monitored in MTT colorimetric assay in primary astrocytes treated with Compounds (1), (2), (3), (4) (5), (9) and (10) at different concentrations after 1.5 h (FIG. 2 A, B, D, E, F, C, H, respectively) or 24 h (FIG. 2 H, I, K, L, M, J, N, respectively).
In the case of `C=COc1ccc2c(Nc3ccc(S(C)(=O)=O)cc3)nccc2c1` [Compound 10, N-(4-methylsulfonylphenyl)-6-vinyloxy-isoquinolin-1-amine], the “mitochondrial activity (MTT colorimetric assay)” value (shortened to “mitochondrial activity”) is reported as “none of the selected compounds had direct effect on mitochondrial activity”. In the case of `CS(=O)(=O)c1ccc(Nc2nccc3cc(O)c(O)cc23)cc1` [Compound 5, 1-(4-methylsulfonylanilino)isoquinoline-6,7-diol], the “mitochondrial activity” value is reported as “none of the selected compounds had direct effect on mitochondrial activity”. `COc1cc2ccnc(Nc3ccc(N4CCCC4=O)cc3)c2cc1OC` [Compound 9, 1-[4-[(6,7-dimethoxy-1-isoquinolyl)amino]phenyl]pyrrolidin-2-one] was tested, and the “mitochondrial activity” value was “none of the selected compounds had direct effect on mitochondrial activity”.
